The test relates to gut microbiota of nonalcoholic fatty liver mice. Kind of test: Gut microbiota analysis (full-length 16S sequencing) in nonalcoholic fatty liver mice. The format is in vivo, C57BL/6J mice. The settings on record: compared with the HFD group; L008, H008 and Msol groups; FIG. 9. As to the method:
The experiment used 7-week-old male C57BL/6J strain mice purchased from the National Laboratory Animal Center. The initial body weight was about 23 g, with 12 mice per group. They were housed at 60% relative humidity, room temperature 25±1° C., with a 12-hour light cycle (8:00-20:00). The experiment lasted for 22 weeks, during which food and water were provided ad libitum. Body weight, food intake, and water consumption were measured weekly.
Embodiment 4 uses a high-fat feed to induce a nonalcoholic fatty liver animal model. The animal experiment lasted for 22 weeks. Animal test feed was prepared according to the formula of Research Diets (New Brunswick, NJ, USA) for D12450B and D12492. The grouping is as follows: • i. […]
Total genomic DNA was extracted from samples (QIAamp PowerFecal DNA, Qiagen). DNA concentration was determined using a Qubit 4.0 fluorometer (Thermo Scientific) and adjusted to 1 ng/μL. […] PCR reactions were performed using KAPA HiFi HotStart ReadyMix (Roche): 95° C., 3 minutes; 20-27 cycles (sample-dependent): 95° C., 30 seconds, 57° C., 30 seconds, 72° C., 60 seconds; 72° C. for 5 minutes, and final storage at 4° C. PCR products were monitored on 1% agarose gel. […]
Sample data were demultiplexed from the raw data based on Barcode sequences and PCR amplification primer sequences. […] The sequences with primers removed were used as QIIME2 DADA2 Input Reads. […]

With Monascinol [Msol], the “microbial population (abundance) of Blautia in the intestine” value is reported as “increase” and the “microbial population (abundance) of Intestinimonas in the intestine” value is recorded as “increase”.

Values taken from US20250375492A1, “MONASCUS PILOSUS STRAIN, COMPOSITION FOR PREVENTING OR TREATING NONALCOHOLIC FATTY LIVER DISEASE AND USE OF SAID MONASCUS PILOSUS” (SUNWAY BIOTECH CO., LTD., priority 2024, published 2025).
